Structures are written as SMILES. Calls of active or inactive are those of the source. The calls are words filed in the database; no cut-off is given here.

Data set [1] deals with T1, von Hippel-Lindau disease tumor suppressor/Son of sevenless homolog 1 (Homo sapiens, UniProt Q07889+P40337). Nature of the data set: Protac activity at VHL/SOS1 in human NCI-H358 cells assessed as SOS1 protein degradation at 0.1 uM incubated for 24 hr by Western blot analysis relative to control. The format is cell-based. For orientation: In western blotting, separated proteins are transferred to a membrane and probed.
T1 sequence (P40337 whole entry, looked up): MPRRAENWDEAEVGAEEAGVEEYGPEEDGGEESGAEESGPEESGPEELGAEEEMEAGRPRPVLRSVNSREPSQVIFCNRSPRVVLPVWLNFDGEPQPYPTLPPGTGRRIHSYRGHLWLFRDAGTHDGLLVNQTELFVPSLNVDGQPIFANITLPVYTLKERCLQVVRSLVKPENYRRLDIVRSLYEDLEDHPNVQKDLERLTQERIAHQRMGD
T1 sequence (Q07889 whole entry, looked up): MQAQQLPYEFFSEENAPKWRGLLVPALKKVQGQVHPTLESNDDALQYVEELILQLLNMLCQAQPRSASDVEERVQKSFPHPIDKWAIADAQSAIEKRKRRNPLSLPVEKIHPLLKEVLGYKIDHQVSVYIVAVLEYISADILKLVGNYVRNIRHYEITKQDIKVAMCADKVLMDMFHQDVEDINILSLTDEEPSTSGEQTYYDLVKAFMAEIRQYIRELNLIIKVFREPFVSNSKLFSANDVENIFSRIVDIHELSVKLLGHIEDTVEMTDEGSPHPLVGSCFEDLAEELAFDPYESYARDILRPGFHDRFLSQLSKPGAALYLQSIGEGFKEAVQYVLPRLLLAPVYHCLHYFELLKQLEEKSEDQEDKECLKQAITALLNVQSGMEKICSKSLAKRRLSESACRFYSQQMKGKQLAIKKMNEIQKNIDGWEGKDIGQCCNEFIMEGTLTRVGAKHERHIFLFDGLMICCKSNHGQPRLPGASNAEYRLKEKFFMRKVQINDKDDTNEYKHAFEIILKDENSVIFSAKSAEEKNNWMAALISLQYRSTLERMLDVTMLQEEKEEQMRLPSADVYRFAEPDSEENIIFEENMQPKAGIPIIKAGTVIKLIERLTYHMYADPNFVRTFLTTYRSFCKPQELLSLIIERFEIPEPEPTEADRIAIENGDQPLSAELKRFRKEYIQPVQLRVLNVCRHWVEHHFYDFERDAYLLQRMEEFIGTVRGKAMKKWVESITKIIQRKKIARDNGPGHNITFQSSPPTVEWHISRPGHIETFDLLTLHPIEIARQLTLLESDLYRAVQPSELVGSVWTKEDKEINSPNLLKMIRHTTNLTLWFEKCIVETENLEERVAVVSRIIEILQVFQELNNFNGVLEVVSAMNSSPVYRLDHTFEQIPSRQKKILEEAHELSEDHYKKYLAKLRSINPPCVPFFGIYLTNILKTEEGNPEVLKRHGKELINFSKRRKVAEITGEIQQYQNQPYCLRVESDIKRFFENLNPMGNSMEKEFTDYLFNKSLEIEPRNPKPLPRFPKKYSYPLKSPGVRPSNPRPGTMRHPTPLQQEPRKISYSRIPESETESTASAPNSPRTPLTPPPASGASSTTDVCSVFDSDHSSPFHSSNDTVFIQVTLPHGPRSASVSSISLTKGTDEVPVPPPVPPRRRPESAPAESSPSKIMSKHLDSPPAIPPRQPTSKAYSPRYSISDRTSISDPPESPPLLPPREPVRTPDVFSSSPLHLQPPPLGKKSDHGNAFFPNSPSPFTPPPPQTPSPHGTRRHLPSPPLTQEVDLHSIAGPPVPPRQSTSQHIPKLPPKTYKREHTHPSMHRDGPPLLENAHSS

For data set [2], the target named is von Hippel-Lindau disease tumor suppressor/Son of sevenless homolog 1/GTPase KRas (Homo sapiens) (UniProt Q07889+P01116+P40337). Nature of the data set: Protac activity at SOS1/KRAS E3 ligase in human NCI-H358 cells assessed as KRAS protein level at 2.5 uM measured after 24 hr by […] analysis. The class given is cell-based.
Sequence of von Hippel-Lindau disease tumor suppressor/Son of sevenless homolog 1/GTPase KRas (Homo sapiens) (P01116 whole entry, looked up): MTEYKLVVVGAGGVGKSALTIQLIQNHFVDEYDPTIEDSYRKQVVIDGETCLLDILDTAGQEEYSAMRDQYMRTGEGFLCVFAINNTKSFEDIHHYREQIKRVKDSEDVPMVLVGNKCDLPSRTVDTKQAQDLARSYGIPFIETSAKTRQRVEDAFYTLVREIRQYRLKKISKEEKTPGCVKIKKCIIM
Sequence of von Hippel-Lindau disease tumor suppressor/Son of sevenless homolog 1/GTPase KRas (Homo sapiens) (P40337 whole entry, looked up): as the sequence (P40337 whole entry, looked up) above
Sequence of von Hippel-Lindau disease tumor suppressor/Son of sevenless homolog 1/GTPase KRas (Homo sapiens) (Q07889 whole entry, looked up): as the sequence (Q07889 whole entry, looked up) above
Data set [3] relates to Mus musculus. As to the kind of experiment: In vivo degradation of SOS1 in BALB/c nude mouse xenografted with human NCI-H358 cells at 20 to 50 mg/kg, IT incubated for 21 days by immunohistochemistry analysis. The format is functional, organism-based. As to conditions: dose 20-50 mg/kg, time 21.0 day.
The nature of data set [4]: Acute toxicity in BALB/c mouse assessed as change in body weight at 10 mg/kg, ip once daily for 7 days. The format is organism-based. To be noted: in vivo, 168 h, time 7 day.
Data set [5] has as its target von Hippel-Lindau disease tumor suppressor/Son of sevenless homolog 1 (Homo sapiens, UniProt Q07889+P40337, G12D). As to the kind of experiment: Protac activity at VHL/SOS1 in human SK-LU-1 cells harboring KRAS G12D mutant assessed as SOS1 protein degradation incubated for 24 hr by Western blot analysis. The class given is cell-based.
Data set [6] can be described thus: Observed AUC (infinity) in BALB/c mouse at 10 mg/kg, ip measured after 24 hrs by LC-MS/MS analysis. The class given is ADME, organism-based. The arrangement: dose 10 mg/kg, time 24 hrs, route ip. As to conditions: in vivo.
Another data set has as its system NCI-H358. As to the kind of experiment: Effect of compound on human NCI-H358 cells assessed as increase in phophorylated ERK level at 1 uM incubated for 4 hr by Western blot analysis. The class given is functional, cell-based.
A further data set relates to HEK-293T. Nature of the data set: Cytotoxicity against human HEK-293T cells assessed as cell growth inhibition incubated for 7 days by CellTiter-Glo 3D cell viability assay. The class given is toxicity, cell-based. To be noted: 168 h, time 7 day.
Data set [7] relates to Mus musculus. As to the kind of experiment: In vivo inhibition of phosphorylated ERK level in BALB/c nude mouse xenografted with human NCI-H358 cells at 20 to 50 mg/kg, IT incubated for 21 days by immunohistochemistry analysis. The class given is functional, organism-based. To be noted: dose 20-50 mg/kg, time 21.0 day.
The subject of the next data set is SK-LU-1. Nature of the data set: Antiproliferative activity against human SK-LU-1 cells harboring KRAS G12D mutant assessed as cell growth inhibition incubated for 7 days by CellTiter-Glo 3D cell viability assay. The class given is functional, cell-based. To be noted: SK-LU-1, 168 h. Background: Cellular ATP, detected with luciferase, serves as a proxy for viable cell number.

A short description of data set [8]: Half life in BALB/c mouse at 10 mg/kg, ip measured after 24 hrs by LC-MS/MS analysis. As to conditions: in vivo. The format is ADME, organism-based.
The target of data set [9] is von Hippel-Lindau disease tumor suppressor/Son of sevenless homolog 1 (Homo sapiens, UniProt Q07889+P40337, G12V). Nature of the data set: Protac activity at VHL/SOS1 in human SW-620 cells harboring KRAS G12V mutant assessed as SOS1 protein degradation incubated for 24 hr by Western blot analysis. The format is cell-based.
Sequence of von Hippel-Lindau disease tumor suppressor/Son of sevenless homolog 1 (Homo sapiens, UniProt Q07889+P40337, G12V) (P40337 whole entry, looked up, stated change not applied): as the sequence (P40337 whole entry, looked up) above
Sequence of von Hippel-Lindau disease tumor suppressor/Son of sevenless homolog 1 (Homo sapiens, UniProt Q07889+P40337, G12V) (Q07889 whole entry, looked up, stated change not applied): as the sequence (Q07889 whole entry, looked up) above
A short description of data set [10]: Effect of compound on human ASPC1 cells harboring KRAS G12D mutant assessed as inhibition of ERK phosphorylation incubated for 24 hr by Western blot analysis. The class given is functional, cell-based. To be noted: ASPC1, 24 h.
Data set [11] deals with T1, von Hippel-Lindau disease tumor suppressor/Son of sevenless homolog 1. As to the kind of experiment: Protac activity at VHL/SOS1 in human NCI-H358 cells assessed as SOS1 protein degradation at 1 uM incubated for 24 hr by Western blot analysis relative to control. The format is cell-based.

The DC50 is the concentration giving 50% degradation. Usually AUC(0-inf) stands for total exposure, with the tail of the curve extrapolated. High values mean more exposure, low ones less exposure. One may read the IC50 as the concentration needed to halve the response being measured. Usually half-life stands for the time in which the quantity being followed falls by half. Higher therefore signals slow loss. As to `Cc1cc(Cn2c(N3CC4(CNC4)C3)nc3c(N4CCN(CCCCCCCCC(=O)N[C@H](C(=O)N5C[C@H](O)C[C@H]5C(=O)N[C@@H](C)c5ccc(-c6scnc6C)cc5)C(C)(C)C)CC4)cc(Cl)cc32)cc(C)c1F`, the Activity in data set [1] is 56.2%; in data set [4], “Non-Toxic”; in the data set on HEK-293T it was “Non-Toxic”; in [11], 92.5%. Also, the result (in data set [2]; in the data set with Mus musculus [3]; in the data set with NCI-H358; in the data set with Mus musculus [7]) was Active. Besides, the DC50 worked out at 104 nM in data set [5] and 125 nM in data set [9]. The AUC(0-inf) in data set [6] came to 4420 ng·h/mL. The values for the IC50 (in the data set on SK-LU-1; in data set [10]) were 115 nM and 72.3 nM, respectively. The same molecule had a half-life in [8] of 8.64 h.
